Assay results from patent publication US20230146455A1, “TREATMENT OF INFLAMMATORY DISEASES WITH PEPTIDES AND PHARMACEUTICAL COMPOSITIONS” (Yuyu Pharma, Inc., priority 2020, published 2023).
Several values for one entry are separate records, joined by “and”; a condition that tells them apart may be missing. Equal values may be shown once. Where a SMILES comes first, the peptide text is derived from it. [ ]: non-standard residue; d: D form. Hyp = O=C(O)[C@@H]1C[C@@H](O)CN1

Test system: human PBMCs
Assay: PBMC cell counts (total, live, viability; trypan blue, Countess) with and without LPS and test articles (Example 9)
Assay type: cell-based
Procedure: Treatment Human PBMCs were pretreated with YY-101, YDE-011 and YDE-043 or reference compound; Xiidra® at various concentration (ranging from 1 nM to 100 uM) for 2 h before stimulation. An equal volume of 0.5% DMSO was used as a vehicle control. Then, the cells were treated with LPS at 5 ug/ml. The supernatants from treated cells were harvested at 24 h and placed in a 96 well for Luminex cytokine & chemokine profiling using a Luminex 200 multiplex assay (Luminex; R&D system, USA).
The main study arm with triplicate wells per group in a 24-well plate: • 1. Blank • 2. PBMC: 0.5% DMSO • 3. PBMC+LPS (5 ug/ml) • 4. PBMC+YY-101 100 uM • 5. PBMC+YY-101 10 uM • 6. PBMC+YY-101 1 uM • 7. PBMC+YY-101 0.1 uM • 8. PBMC+YY-101 0.01 uM • 9. PBMC+LPS (5 ug/ml)+Xiidra®100 uM • 10. PBMC+LPS (5 ug/ml)+Xiidra® 10 uM • 11. PBMC+LPS (5 ug/ml)+Xiidra® 1 uM • 12. PBMC+LPS (5 ug/ml)+Xiidra®0.1 uM • 13. PBMC+LPS (5 ug/ml)+Xiidra®0.01 uM • 14. PBMC+LPS (5 ug/ml)+Xiidra®0.001 uM • 15. PBMC+LPS (5 ug/ml)+YY-101 100 uM • 16. PBMC+LPS (5 ug/ml)+YY-101 10 uM • 17. PBMC+LPS (5 ug/ml)+YY-101 1 uM • 18. PBMC+LPS (5 ug/ml)+YY-101 0.1 uM • 19. PBMC+LPS (5 ug/ml)+YY-101 0.01 uM • 20. PBMC+LPS (5 ug/ml)+YY-101 0.001 uM • 21. PBMC+LPS (5 ug/ml)+YDE-011 100 uM • 22. PBMC+LPS (5 ug/ml)+YDE-011 10 uM • 23. PBMC+LPS (5 ug/ml)+YDE-011 1 uM • 24. PBMC+LPS (5 ug/ml)+YDE-011 0.1 uM • 25. PBMC+LPS (5 ug/ml)+YDE-011 0.01 uM • 26. PBMC+LPS (5 ug/ml)+YDE-011 0.001 uM • 27. PBMC+LPS (5 ug/ml)+YDE-043 100 uM • 28. PBMC+LPS (5 ug/ml)+YDE-043 10 uM • 29. PBMC+LPS (5 ug/ml)+YDE-043 1 uM • 30. PBMC+LPS (5 ug/ml)+YDE-043 0.1 uM • 31. PBMC+LPS (5 ug/ml)+YDE-043 0.01 uM • 32. PBMC+LPS (5 ug/ml)+YDE-043 0.001 uM
The number of PBMCs was measured after 24 hr of treatment. The culture both and trypan blue were diluted 1:1 and 10 ul was added to Countess cell counting chamber (Thermo fisher, USA). The number of PBMCs was measured using a Countess automated cell counter (Thermo fisher, USA).

[1] = PBMC + LPS(5 ug/ml) + compound 0.001 uM, 24 hr
[2] = PBMC + LPS(5 ug/ml) + compound 0.01 uM, 24 hr
[3] = PBMC + LPS(5 ug/ml) + compound 0.1 uM, 24 hr
[4] = PBMC + LPS(5 ug/ml) + compound 1 uM, 24 hr
[5] = PBMC + LPS(5 ug/ml) + compound 10 uM, 24 hr
[6] = PBMC + LPS(5 ug/ml) + compound 100 uM, 24 hr
[7] = PBMC + LPS(5 ug/ml) + test article 0.001 uM, Mean
[8] = PBMC + LPS(5 ug/ml) + test article 0.001 uM, single replicates
[9] = PBMC + LPS(5 ug/ml) + test article 0.01 uM, Mean
[10] = PBMC + LPS(5 ug/ml) + test article 0.01 uM, single replicates
[11] = PBMC + LPS(5 ug/ml) + test article 0.1 uM, Mean
[12] = PBMC + LPS(5 ug/ml) + test article 0.1 uM, single replicates
[13] = PBMC + LPS(5 ug/ml) + test article 1 uM, Mean
[14] = PBMC + LPS(5 ug/ml) + test article 1 uM, single replicates
[15] = PBMC + LPS(5 ug/ml) + test article 10 uM, Mean
[16] = PBMC + LPS(5 ug/ml) + test article 10 uM, single replicates
[17] = PBMC + LPS(5 ug/ml) + test article 100 uM, Mean
[18] = PBMC + LPS(5 ug/ml) + test article 100 uM, single replicates
[19] = PBMC + LPS(5 ug/ml), test article 0.001 uM, Mean
[20] = PBMC + LPS(5 ug/ml), test article 0.001 uM, single replicates
[21] = PBMC + LPS(5 ug/ml), test article 0.01 uM, Mean
[22] = PBMC + LPS(5 ug/ml), test article 0.01 uM, single replicates
[23] = PBMC + LPS(5 ug/ml), test article 0.1 uM, Mean
[24] = PBMC + LPS(5 ug/ml), test article 0.1 uM, single replicates
[25] = PBMC + LPS(5 ug/ml), test article 1 uM, Mean
[26] = PBMC + LPS(5 ug/ml), test article 1 uM, single replicates
[27] = PBMC + LPS(5 ug/ml), test article 10 uM, Mean
[28] = PBMC + LPS(5 ug/ml), test article 10 uM, single replicates

SMILES: CC(C)C[C@H](NC(=O)CNC(=O)[C@H](CC(=O)O)NC(=O)[C@H](CCC(N)=O)NC(=O)CNC(=O)[C@@H]1C[C@@H](O)CN1)C(=O)N[C@@H](C)C(=O)NCC(=O)N1CCC[C@H]1C(=O)N[C@@H](CCCCN)C(=O)O [YY-101] (H-[Hyp]GQDGLAGPK-OH; N-terminus and C-terminus assumed)
- Live cell [1]: 6.5 ± 0.4 10^5/ml
- Total cell [1]: 7.7 ± 0.6 10^5/ml
- Live cell [2]: 6.2 ± 0.1 10^5/ml
- Total cell [2]: 8.1 ± 0.6 10^5/ml
- Live cell [3]: 5.9 ± 0.3 10^5/ml
- Total cell [3]: 7.8 ± 0.8 10^5/ml
- Live cell [4]: 6.5 ± 0.3 10^5/ml
- Total cell [4]: 9.8 ± 0.6 10^5/ml
- Live cell [5]: 6.7 ± 0.5 10^5/ml
- Total cell [5]: 9.1 ± 1.1 10^5/ml
- Live cell [6]: 5.8 ± 0.4 10^5/ml
- Total cell [6]: 7.8 ± 1.0 10^5/ml
- Live cell [7]: 6.5 10^5/ml
- Live cell (10^5/ml) [7]: 6.5 10^5/ml
- Live cell, Mean [7]: 6.5 10^5/ml
- Live cell (PBMC + LPS(5 ug/ml) + test article 0.001 uM, individual replicates (1st, 2nd, 3rd)): 5.7 10^5/ml and 7.1 10^5/ml and 6.6 10^5/ml
- Live cell [8]: 5.7 10^5/ml and 7.1 10^5/ml and 6.6 10^5/ml
- Live cell (10^5/ml) [8]: 5.7 10^5/ml and 7.1 10^5/ml and 6.6 10^5/ml
- Live cell (PBMC + LPS(5 ug/ml) + test article 0.001 uM, single replicates (1st, 2nd, 3rd)): 5.7 10^5/ml and 7.1 10^5/ml and 6.6 10^5/ml
- Live cell [9]: 6.2 10^5/ml
- Live cell (10^5/ml) [9]: 6.2 10^5/ml
- Live cell, Mean [9]: 6.2 10^5/ml
- Live cell (PBMC + LPS(5 ug/ml) + test article 0.01 uM, individual replicates (1st, 2nd, 3rd)): 6.4 10^5/ml and 6.0 10^5/ml and 6.1 10^5/ml
- Live cell [10]: 6.4 10^5/ml and 6.0 10^5/ml and 6.1 10^5/ml
- Live cell (10^5/ml) [10]: 6.4 10^5/ml and 6.0 10^5/ml and 6.1 10^5/ml
- Live cell (PBMC + LPS(5 ug/ml) + test article 0.01 uM, single replicates (1st, 2nd, 3rd)): 6.4 10^5/ml and 6.0 10^5/ml and 6.1 10^5/ml
- Live cell [11]: 5.9 10^5/ml
- Live cell (10^5/ml) [11]: 5.9 10^5/ml
- Live cell, Mean [11]: 5.9 10^5/ml
- Live cell [12]: 6.2 10^5/ml (2×) and 5.2 10^5/ml
- Live cell (10^5/ml) [12]: 6.2 10^5/ml (2×) and 5.2 10^5/ml
- Live cell (PBMC + LPS(5 ug/ml) + test article 0.1 uM, single replicates (1st, 2nd, 3rd)): 6.2 10^5/ml (2×) and 5.2 10^5/ml
- Live cell [13]: 6.5 10^5/ml
- Live cell (10^5/ml) [13]: 6.5 10^5/ml
- Live cell, Mean [13]: 6.5 10^5/ml
- Live cell [14]: 6.3 10^5/ml and 7.1 10^5/ml and 6.2 10^5/ml
- Live cell (10^5/ml) [14]: 6.3 10^5/ml and 7.1 10^5/ml and 6.2 10^5/ml
- Live cell (PBMC + LPS(5 ug/ml) + test article 1 uM, single replicates (1st, 2nd, 3rd)): 6.3 10^5/ml and 7.1 10^5/ml and 6.2 10^5/ml
- Live cell [15]: 6.7 10^5/ml
- Live cell (10^5/ml) [15]: 6.7 10^5/ml
- Live cell, Mean [15]: 6.7 10^5/ml
- Live cell [16]: 6.0 10^5/ml and 6.4 10^5/ml and 7.6 10^5/ml
- Live cell (10^5/ml) [16]: 6.0 10^5/ml and 6.4 10^5/ml and 7.6 10^5/ml
- Live cell (PBMC + LPS(5 ug/ml) + test article 10 uM, single replicates (1st, 2nd, 3rd)): 6.0 10^5/ml and 6.4 10^5/ml and 7.6 10^5/ml
- Live cell [17]: 5.8 10^5/ml
- Live cell (10^5/ml) [17]: 5.8 10^5/ml
- Live cell, Mean [17]: 5.8 10^5/ml
- Live cell [18]: 6.3 10^5/ml and 6.2 10^5/ml and 5.0 10^5/ml
- Live cell (10^5/ml) [18]: 6.3 10^5/ml and 6.2 10^5/ml and 5.0 10^5/ml
- Live cell (PBMC + LPS(5 ug/ml) + test article 100 uM, single replicates (1st, 2nd, 3rd)): 6.3 10^5/ml and 6.2 10^5/ml and 5.0 10^5/ml
- Live cell (PBMC + LPS(5 ug/ml), 0.001 uM, Mean): 6.5 10^5/ml
- Live cell (PBMC + LPS(5 ug/ml), 0.001 uM, single replicates): 5.7 10^5/ml and 7.1 10^5/ml and 6.6 10^5/ml
- Live cell (PBMC + LPS(5 ug/ml), 0.01 uM, Mean): 6.2 10^5/ml
- Live cell (PBMC + LPS(5 ug/ml), 0.01 uM, single replicates): 6.4 10^5/ml and 6.0 10^5/ml and 6.1 10^5/ml
- Live cell (PBMC + LPS(5 ug/ml), 0.1 uM, Mean): 5.9 10^5/ml
- Live cell (PBMC + LPS(5 ug/ml), 0.1 uM, single replicates): 6.2 10^5/ml (2×) and 5.2 10^5/ml
- Live cell (PBMC + LPS(5 ug/ml), 1 uM, Mean): 6.5 10^5/ml
- Live cell (PBMC + LPS(5 ug/ml), 1 uM, single replicates): 6.3 10^5/ml and 7.1 10^5/ml and 6.2 10^5/ml
- Live cell (PBMC + LPS(5 ug/ml), 10 uM, Mean): 6.7 10^5/ml
- Live cell (PBMC + LPS(5 ug/ml), 10 uM, single replicates): 6.0 10^5/ml and 6.4 10^5/ml and 7.6 10^5/ml
- Live cell (PBMC + LPS(5 ug/ml), 100 uM, Mean): 5.8 10^5/ml
- Live cell (PBMC + LPS(5 ug/ml), 100 uM, single replicates): 6.3 10^5/ml and 6.2 10^5/ml and 5.0 10^5/ml
- Live cell [19]: 6.5 10^5/ml
- Total cell count [19]: 7.7 10^5/ml
- Live cell [20]: 5.7 10^5/ml and 7.1 10^5/ml and 6.6 10^5/ml
- Total cell count [20]: 6.7 10^5/ml and 8.8 10^5/ml and 7.5 10^5/ml
- Viability [20]: 84.0% and 80.0% and 89.0%
- Live cell [21]: 6.2 10^5/ml
- Total cell count [21]: 8.1 10^5/ml
- Live cell [22]: 6.4 10^5/ml and 6.0 10^5/ml and 6.1 10^5/ml
- Total cell count [22]: 9.2 10^5/ml and 8.1 10^5/ml and 7.0 10^5/ml
- Viability [22]: 70.0% and 75.0% and 87.0%
- Live cell [23]: 5.9 10^5/ml
- Total cell count [23]: 7.8 10^5/ml
- Live cell [24]: 6.2 10^5/ml (2×) and 5.2 10^5/ml
- Total cell count [24]: 9.3 10^5/ml and 6.7 10^5/ml and 7.5 10^5/ml
- Viability [24]: 67.0% and 77.0% and 83.0%
- Live cell [25]: 6.5 10^5/ml
- Total cell count [25]: 9.8 10^5/ml
- Live cell [26]: 6.3 10^5/ml and 7.1 10^5/ml and 6.2 10^5/ml
- Total cell count [26]: 8.8 10^5/ml and 9.7 10^5/ml and 11.0 10^5/ml
- Viability [26]: 72.0% and 73.0% and 55.0%
- Live cell [27]: 6.7 10^5/ml
- Total cell count [27]: 9.1 10^5/ml
- Live cell [28]: 6.0 10^5/ml and 6.4 10^5/ml and 7.6 10^5/ml
- Total cell count [28]: 7.3 10^5/ml and 9.0 10^5/ml and 11.0 10^5/ml
- Viability [28]: 83.0% and 71.0% and 67.0%
